According to DBAASP:
Converted amounts (≈) assume the structure as drawn.

Key:
Assay in all cases: ≥ marks a high value that may be exact or a test limit, other limits are often not marked, values filed in µg/mL are converted to µM
[1] = test system: Escherichia coli ATCC 8739
[2] = test system: Staphylococcus aureus ATCC 25923
[3] = test system: Pseudomonas aeruginosa ATCC 9027
[4] = test system: Staphylococcus aureus ATCC 6538
Escherichia coli BL21 = test system: Escherichia coli BL21
Staphylococcus aureus = test system: Staphylococcus aureus
Pseudomonas aeruginosa = test system: Pseudomonas aeruginosa
Bacillus subtilis 168 = test system: Bacillus subtilis 168
Escherichia coli B = test system: Escherichia coli B
Enterococcus faecalis = test system: Enterococcus faecalis
Klebsiella pneumoniae = test system: Klebsiella pneumoniae
Escherichia coli = test system: Escherichia coli
Acinetobacter baumannii = test system: Acinetobacter baumannii
[5] = test system: Staphylococcus epidermidis
[6] = test system: Escherichia coli KCTC 1682
[7] = test system: Bacillus subtilis KCTC 3068
[8] = test system: Salmonella typhimurium KCTC 1926
[9] = test system: Staphylococcus aureus KCTC 1621

## CC[C@H](C)[C@H](NC(=O)[C@H](CCCCN)NC(=O)[C@H](C)NC(=O)[C@@H](NC(=O)[C@@H](NC(=O)[C@H](CCCN=C(N)N)NC(=O)[C@H](C)NC(=O)[C@H](CC(C)C)NC(=O)[C@@H](NC(=O)[C@H](CCCCN)NC(=O)[C@H](C)NC(=O)[C@H](C)NC(=O)[C@H](Cc1ccccc1)NC(=O)[C@H](CC(C)C)NC(=O)[C@H](CCCCN)NC(=O)[C@H](CCCCN)NC(=O)[C@H](CCSC)NC(=O)[C@@H]1CCCN1)[C@@H](C)CC)C(C)C)C(C)C)C(=O)N[C@@H](Cc1c[nH]c2ccccc12)C(=O)O [PMKKLFAAKILARVVAKIW]
[1]
  MIC: 14.7 µM (≈ 32 µg/mL)
[2]
  MIC: > 117 µM

## CC[C@H](C)[C@H](NC(=O)[C@H](CC(N)=O)NC(=O)[C@H](CCCN=C(N)N)NC(=O)CNC(=O)[C@H](CCSC)NC(=O)[C@H](CCCCN)NC(=O)[C@H](CCC(=O)O)NC(=O)[C@@H](NC(=O)[C@H](CCCCN)NC(=O)[C@H](CC(C)C)NC(=O)[C@H](Cc1ccccc1)NC(=O)[C@@H](NC(=O)[C@H](CCCCN)NC(=O)[C@H](CCC(=O)O)NC(=O)[C@H](CCCCN)NC(=O)[C@@H]1CCCN1C(=O)[C@@H](N)CCSC)C(C)C)[C@@H](C)CC)C(=O)N[C@@H](CCCN=C(N)N)C(=O)N[C@@H](CC(N)=O)C(N)=O [MPKEKVFLKIEKMGRNIRN]
[3]
  MIC: > 85.8 µM
[4]
  MIC: > 85.8 µM

## CC[C@H](C)[C@H](NC(=O)[C@@H]1CCCN1C(=O)[C@H](CC(C)C)NC(=O)[C@H](Cc1ccc(O)cc1)NC(=O)[C@H](Cc1cnc[nH]1)NC(=O)[C@H](C)NC(=O)CNC(=O)[C@H](C)NC(=O)[C@@H](NC(=O)[C@H](C)NC(=O)[C@H](CS)NC(=O)[C@H](C)NC(=O)[C@@H]1CCCN1C(=O)CNC(=O)[C@H](CS)NC(=O)[C@@H](NC(=O)[C@@H](NC(=O)CNC(=O)CNC(=O)[C@@H](N)C(C)C)[C@@H](C)O)[C@@H](C)CC)C(C)C)C(=O)O [VGGTICGPACAVAGAHYLPI]
Escherichia coli BL21
  MIC: ≥ 128 µM

## CSCC[C@H](N)C(=O)N[C@@H](CO)C(=O)N[C@@H](C)C(=O)N[C@@H](CCC(=O)O)C(=O)N[C@H](C(=O)N[C@H](C(=O)N[C@H](C(=O)N[C@@H](CCCCN)C(=O)N[C@@H](CCCCN)C(=O)N[C@H](C(=O)N[C@@H](CC(=O)O)C(=O)NCC(=O)N[C@@H](CC(=O)O)C(=O)N[C@@H](C)C(=O)N[C@@H](CC(C)C)C(=O)N[C@@H](CCC(=O)O)C(=O)N[C@@H](CC(C)C)C(=O)NCC(=O)O)C(C)C)C(C)C)C(C)C)C(C)C [MSAEVVVKKVDGDALELG]
[1]
  MIC: ≥ 138 µM
[2]
  MIC: > 138 µM

## CC[C@H](C)[C@H](NC(=O)[C@H](CO)NC(=O)[C@H](CC(C)C)NC(=O)[C@H](Cc1ccccc1)NC(=O)CN)C(=O)N[C@@H](CC(C)C)C(=O)N[C@@H](CCCCN)C(=O)N[C@@H](CCCCN)C(=O)N[C@H](C(=O)N[C@@H](CC(C)C)C(=O)N1CCC[C@H]1C(=O)N[C@@H](CCCCN)C(=O)N[C@H](C(=O)N[C@@H](CCSC)C(=O)N[C@@H](C)C(=O)N[C@@H](Cc1cnc[nH]1)C(=O)N[C@@H](CCSC)C(=O)N[C@@H](CCCCN)C(N)=O)C(C)C)C(C)C [GFLSILKKVLPKVMAHMK]
Staphylococcus aureus
  MIC: 40 µM (≈ 81.6 µg/mL)
Pseudomonas aeruginosa
  MIC: 22 µM (≈ 44.9 µg/mL)
Bacillus subtilis 168
  MIC: 0.62 µM (≈ 1.26 µg/mL)
Escherichia coli B
  MIC: 1 µM (≈ 2.04 µg/mL)

## CC[C@H](C)[C@H](NC(=O)[C@H](Cc1cnc[nH]1)NC(=O)[C@H](CCCCN)NC(=O)[C@H](CC(C)C)NC(=O)[C@H](CCCCN)NC(=O)[C@H](CO)NC(=O)[C@H](CCSC)NC(=O)[C@H](Cc1c[nH]c2ccccc12)NC(=O)[C@H](CCCCN)NC(=O)CN)C(=O)N[C@@H](CC(C)C)C(=O)N[C@@H](CCCCN)C(N)=O [GKWMSKLKHILK]
Staphylococcus aureus
  MIC: > 100 µM
Pseudomonas aeruginosa
  MIC: > 100 µM
Bacillus subtilis 168
  MIC: 3.7 µM (≈ 5.43 µg/mL)
Escherichia coli B
  MIC: ≥ 45 µM

## CC(C)C[C@H](NC(=O)CNC(=O)[C@@H](NC(=O)[C@@H]1CCCN1C(=O)[C@H](CC(C)C)NC(=O)CNC(=O)[C@H](CC(N)=O)NC(=O)[C@H](CC(N)=O)NC(=O)[C@H](Cc1ccc(O)cc1)NC(=O)[C@@H](NC(=O)[C@H](CCCN=C(N)N)NC(=O)[C@H](CS)NC(=O)[C@H](CCCN=C(N)N)NC(=O)[C@H](Cc1cnc[nH]1)NC(=O)[C@H](CCCCN)NC(=O)[C@@H](N)CCCCN)C(C)C)[C@@H](C)O)C(=O)N[C@@H](Cc1ccc(O)cc1)C(=O)N[C@@H](CCCN=C(N)N)C(=O)N[C@@H](Cc1c[nH]c2ccccc12)C(=O)N[C@@H](CS)C(N)=O [KKHRCRVYNNGLPTGLYRWC]
[4]
  MIC: 2.4 µM (≈ 5.91 µg/mL)

## CC[C@H](C)[C@H](NC(=O)CNC(=O)[C@H](CCCN=C(N)N)NC(=O)[C@H](Cc1ccc(O)cc1)NC(=O)[C@H](CC(C)C)NC(=O)[C@H](CCCCN)NC(=O)CNC(=O)[C@H](Cc1ccccc1)NC(=O)[C@@H](N)Cc1c[nH]c2ccccc12)C(=O)N[C@H](C(=O)N[C@@H](CCCCN)C(=O)N[C@H](C(=O)N[C@H](C(=O)N[C@@H](CCCCN)C(=O)N[C@@H](CCCCN)C(=O)N[C@H](C(=O)N[C@@H](CCCCN)C(=O)NCC(=O)N[C@@H](CC(C)C)C(=O)N[C@@H](CC(C)C)C(=O)N[C@@H](CCCCN)C(=O)NCC(=O)O)C(C)C)C(C)C)C(C)C)[C@@H](C)O [WFGKLYRGITKVVKKVKGLLKG]
Staphylococcus aureus
  MIC: 9.9 µM (≈ 24.9 µg/mL)
Pseudomonas aeruginosa
  MIC: 1.3 µM (≈ 3.27 µg/mL)
Enterococcus faecalis
  MIC: 1.2 µM (≈ 3.02 µg/mL)
Klebsiella pneumoniae
  MIC: 0.6 µM (≈ 1.51 µg/mL)
Escherichia coli
  MIC: 1.2 µM (≈ 3.02 µg/mL)
Acinetobacter baumannii
  MIC: 0.6 µM (≈ 1.51 µg/mL)
[5]
  MIC: 1.2 µM (≈ 3.02 µg/mL)

## CC(C)C[C@H](NC(=O)[C@H](CCCCN)NC(=O)[C@H](CCCCN)NC(=O)[C@H](C)NC(=O)[C@H](CC(C)C)NC(=O)[C@H](CCCCN)NC(=O)[C@H](CCCCN)NC(=O)[C@H](C)NC(=O)[C@H](Cc1ccccc1)NC(=O)[C@H](CCCCN)NC(=O)[C@H](CCCCN)NC(=O)[C@H](Cc1ccccc1)NC(=O)[C@H](CC(C)C)NC(=O)[C@H](CCCCN)NC(=O)[C@@H](NC(=O)[C@H](CCCCN)NC(=O)[C@H](CCCCN)NC(=O)[C@H](CCCCN)NC(=O)[C@H](Cc1ccccc1)NC(=O)[C@H](CC(C)C)NC(=O)[C@H](CCCCN)NC(=O)[C@H](Cc1c[nH]c2ccccc12)NC(=O)[C@@H](N)CCCCN)[C@@H](C)O)C(=O)O [KWKLFKKKTKLFKKFAKKLAKKL]
[3]
  MIC: > 69.5 µM
[4]
  MIC: 3.47 µM (≈ 10 µg/mL)

## CC(C)C[C@H](NC(=O)[C@H](Cc1ccccc1)NC(=O)[C@@H]1CCCN1C(=O)[C@H](Cc1c[nH]c2ccccc12)NC(=O)[C@H](Cc1c[nH]c2ccccc12)NC(=O)[C@H](Cc1c[nH]c2ccccc12)NC(=O)[C@@H]1CCCN1C(=O)[C@H](Cc1ccccc1)NC(=O)[C@H](CCCNC(=N)N)NC(=O)[C@H](CCCNC(=N)N)NC(=O)[C@@H](N)C(C)C)C(=O)N[C@@H](CCCNC(=N)N)C(=O)N[C@@H](CCCNC(=N)N)C(=O)O [VRRFPWWWPFLRR]
[6]
  MIC: ≥ 33.6 µM
[7]
  MIC: 8.41 µM (≈ 16 µg/mL)
[8]
  MIC: 16.8 µM (≈ 32 µg/mL)
[9]
  MIC: 8.41 µM (≈ 16 µg/mL)
